# Data: ChEMBL document CHEMBL4507310, “Data for DCP probe A-1211212” (2021)
# Key:
# [1] = biological target: Glutamate NMDA receptor (Rattus norvegicus) (UniProt P35439+Q00959+Q00960+Q00961+Q62645+Q8VHN2+Q9R1M7); assay: NMDA Eurofins-Cerep binding assay; type: protein-complex assay; set-up: ligand concentration 5 nM; conditions: filed as antagonist, Compound concentration 10.0 uM
# [2] = biological target: Sodium- and chloride-dependent GABA transporter 1 (Rattus norvegicus) (UniProt P23978); assay: GABA transporter Eurofins-Cerep binding assay; set-up: ligand concentration 10 nM; conditions: filed as antagonist, Compound concentration 10.0 uM
# [3] = biological target: AP2-associated protein kinase 1 (Homo sapiens) (UniProt Q2M2I8); conditions: Compound concentration 1000.0 nM
# Sequence of AP2-associated protein kinase 1 (Homo sapiens) (Q2M2I8 whole entry, looked up): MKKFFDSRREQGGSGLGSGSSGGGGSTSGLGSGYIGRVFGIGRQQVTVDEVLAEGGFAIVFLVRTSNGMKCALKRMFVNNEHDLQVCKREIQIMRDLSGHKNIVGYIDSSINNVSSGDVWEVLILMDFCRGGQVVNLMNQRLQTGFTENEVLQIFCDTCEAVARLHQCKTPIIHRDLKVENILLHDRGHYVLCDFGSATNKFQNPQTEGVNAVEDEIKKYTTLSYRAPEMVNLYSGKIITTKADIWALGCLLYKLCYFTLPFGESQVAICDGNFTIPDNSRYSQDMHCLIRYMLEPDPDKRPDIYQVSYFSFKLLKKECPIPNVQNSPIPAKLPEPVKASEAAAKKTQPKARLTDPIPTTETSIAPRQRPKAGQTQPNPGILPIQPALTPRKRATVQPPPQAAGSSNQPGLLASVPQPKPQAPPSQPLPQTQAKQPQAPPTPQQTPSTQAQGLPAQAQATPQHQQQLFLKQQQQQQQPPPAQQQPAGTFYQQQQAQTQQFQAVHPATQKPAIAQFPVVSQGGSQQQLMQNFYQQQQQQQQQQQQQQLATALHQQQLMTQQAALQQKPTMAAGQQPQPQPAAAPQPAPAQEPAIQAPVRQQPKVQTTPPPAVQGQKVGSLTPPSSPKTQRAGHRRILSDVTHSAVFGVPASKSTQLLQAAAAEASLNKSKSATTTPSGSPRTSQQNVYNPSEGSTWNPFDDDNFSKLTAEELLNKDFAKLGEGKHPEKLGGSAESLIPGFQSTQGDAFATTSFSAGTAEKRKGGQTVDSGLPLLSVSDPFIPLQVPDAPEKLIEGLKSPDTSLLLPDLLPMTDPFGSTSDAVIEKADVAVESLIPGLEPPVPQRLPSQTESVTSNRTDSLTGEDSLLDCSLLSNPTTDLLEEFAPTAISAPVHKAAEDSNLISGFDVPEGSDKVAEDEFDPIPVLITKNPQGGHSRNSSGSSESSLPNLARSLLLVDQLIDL
# [4] = system: Tyrosine-protein kinase ABL1 (Homo sapiens), P00519 [T315I]; conditions: Compound concentration 1000.0 nM
# [5] = biological target: Activin receptor type-1B (Homo sapiens) (UniProt P36896); conditions: Compound concentration 1000.0 nM
# [6] = biological target: Tyrosine-protein kinase BTK (Homo sapiens) (UniProt Q06187); conditions: Compound concentration 1000.0 nM
# [7] = biological target: Calcium/calmodulin-dependent protein kinase type 1 (Homo sapiens) (UniProt Q14012); conditions: Compound concentration 1000.0 nM
# [8] = biological target: Calcium/calmodulin-dependent protein kinase kinase 2 (Homo sapiens) (UniProt Q96RR4); conditions: Compound concentration 1000.0 nM
# [9] = biological target: Cyclin-dependent kinase-like 2 (Homo sapiens) (UniProt Q92772); conditions: Compound concentration 1000.0 nM
# [10] = biological target: Dual specificity protein kinase CLK2 (Homo sapiens) (UniProt P49760); conditions: Compound concentration 1000.0 nM
# Sequence of Dual specificity protein kinase CLK2 (Homo sapiens) (P49760 whole entry, looked up): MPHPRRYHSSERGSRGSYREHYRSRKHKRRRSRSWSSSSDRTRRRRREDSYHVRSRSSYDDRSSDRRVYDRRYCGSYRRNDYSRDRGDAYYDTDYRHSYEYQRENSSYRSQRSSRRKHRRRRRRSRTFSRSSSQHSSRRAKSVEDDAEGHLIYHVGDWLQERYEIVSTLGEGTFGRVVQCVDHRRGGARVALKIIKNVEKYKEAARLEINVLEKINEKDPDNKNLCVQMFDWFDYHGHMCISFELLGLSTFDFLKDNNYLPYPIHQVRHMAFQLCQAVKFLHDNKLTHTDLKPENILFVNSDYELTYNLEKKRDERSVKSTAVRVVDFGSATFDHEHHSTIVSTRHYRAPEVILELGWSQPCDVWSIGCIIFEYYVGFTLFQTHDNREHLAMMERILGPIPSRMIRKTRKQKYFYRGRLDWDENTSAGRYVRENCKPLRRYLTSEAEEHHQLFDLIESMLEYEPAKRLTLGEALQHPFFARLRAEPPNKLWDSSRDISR
# [11] = biological target: Macrophage colony-stimulating factor 1 receptor (Homo sapiens) (UniProt P07333); conditions: Compound concentration 1000.0 nM
# [12] = biological target: Casein kinase I isoform delta (Homo sapiens) (UniProt P48730); conditions: Compound concentration 1000.0 nM
# [13] = biological target: Serine/threonine-protein kinase DCLK2 (Homo sapiens) (UniProt Q8N568); conditions: Compound concentration 1000.0 nM
# [14] = biological target: Fibroblast growth factor receptor 1 (Homo sapiens) (UniProt P11362); conditions: Compound concentration 1000.0 nM
# [15] = biological target: Tyrosine-protein kinase HCK (Homo sapiens) (UniProt P08631); conditions: Compound concentration 1000.0 nM
# [16] = biological target: Serine/threonine-protein kinase ICK (Homo sapiens) (UniProt Q9UPZ9); conditions: Compound concentration 1000.0 nM
# [17] = biological target: Tyrosine-protein kinase JAK1 (Homo sapiens) (UniProt P23458); conditions: Compound concentration 1000.0 nM
# Sequence of Tyrosine-protein kinase JAK1 (Homo sapiens) (P23458 whole entry): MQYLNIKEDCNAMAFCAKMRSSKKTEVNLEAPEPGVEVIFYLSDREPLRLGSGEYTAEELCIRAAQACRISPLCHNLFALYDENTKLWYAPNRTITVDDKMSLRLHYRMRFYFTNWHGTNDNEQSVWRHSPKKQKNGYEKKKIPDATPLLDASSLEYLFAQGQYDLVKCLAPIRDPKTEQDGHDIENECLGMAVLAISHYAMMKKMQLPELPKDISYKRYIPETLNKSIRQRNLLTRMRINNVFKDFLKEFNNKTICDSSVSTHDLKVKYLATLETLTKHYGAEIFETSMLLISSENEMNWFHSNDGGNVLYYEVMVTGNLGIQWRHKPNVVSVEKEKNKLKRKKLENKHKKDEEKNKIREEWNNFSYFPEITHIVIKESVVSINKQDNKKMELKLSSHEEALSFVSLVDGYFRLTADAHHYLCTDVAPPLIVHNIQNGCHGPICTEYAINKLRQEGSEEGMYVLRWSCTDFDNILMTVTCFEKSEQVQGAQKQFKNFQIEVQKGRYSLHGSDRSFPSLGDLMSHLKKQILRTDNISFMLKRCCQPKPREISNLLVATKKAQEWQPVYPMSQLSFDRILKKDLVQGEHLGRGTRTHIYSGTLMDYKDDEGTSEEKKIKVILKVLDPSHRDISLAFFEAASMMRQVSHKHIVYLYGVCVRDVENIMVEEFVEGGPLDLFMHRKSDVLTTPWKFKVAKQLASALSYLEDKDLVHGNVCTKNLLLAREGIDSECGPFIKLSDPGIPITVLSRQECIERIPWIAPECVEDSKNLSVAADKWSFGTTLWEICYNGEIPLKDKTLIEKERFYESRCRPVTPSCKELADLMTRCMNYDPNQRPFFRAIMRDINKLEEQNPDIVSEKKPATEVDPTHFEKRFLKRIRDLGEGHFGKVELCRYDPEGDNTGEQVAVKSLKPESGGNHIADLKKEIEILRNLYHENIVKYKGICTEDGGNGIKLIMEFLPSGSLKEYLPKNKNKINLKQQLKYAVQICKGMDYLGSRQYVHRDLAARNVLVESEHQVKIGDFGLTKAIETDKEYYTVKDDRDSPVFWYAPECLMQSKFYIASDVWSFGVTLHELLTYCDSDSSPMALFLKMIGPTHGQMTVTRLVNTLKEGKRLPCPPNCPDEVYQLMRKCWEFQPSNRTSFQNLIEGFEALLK
# [18] = biological target: Tyrosine-protein kinase JAK3 (Homo sapiens) (UniProt P52333); conditions: Compound concentration 1000.0 nM
# [19] = biological target: Mitogen-activated protein kinase kinase kinase kinase 2 (Homo sapiens) (UniProt Q12851); conditions: Compound concentration 1000.0 nM
# [20] = biological target: Dual specificity mitogen-activated protein kinase kinase 2 (Homo sapiens) (UniProt P36507); conditions: Compound concentration 1000.0 nM
# [21] = biological target: Serine/threonine-protein kinase 4 (Homo sapiens) (UniProt Q13043); conditions: Compound concentration 1000.0 nM
# [22] = biological target: Serine/threonine-protein kinase 26 (Homo sapiens) (UniProt Q9P289); conditions: Compound concentration 1000.0 nM
# [23] = biological target: Serine/threonine-protein kinase Nek10 (Homo sapiens) (UniProt Q6ZWH5); conditions: Compound concentration 1000.0 nM
# [24] = biological target: Serine/threonine-protein kinase NIM1 (Homo sapiens) (UniProt Q8IY84); conditions: Compound concentration 1000.0 nM
# [25] = biological target: Serine/threonine-protein kinase PAK 1 (Homo sapiens) (UniProt Q13153); conditions: Compound concentration 1000.0 nM
# [26] = biological target: Cyclin-dependent kinase 17 (Homo sapiens) (UniProt Q00537); conditions: Compound concentration 1000.0 nM
# Sequence of Cyclin-dependent kinase 17 (Homo sapiens) (Q00537 whole entry, looked up, canonical isoform): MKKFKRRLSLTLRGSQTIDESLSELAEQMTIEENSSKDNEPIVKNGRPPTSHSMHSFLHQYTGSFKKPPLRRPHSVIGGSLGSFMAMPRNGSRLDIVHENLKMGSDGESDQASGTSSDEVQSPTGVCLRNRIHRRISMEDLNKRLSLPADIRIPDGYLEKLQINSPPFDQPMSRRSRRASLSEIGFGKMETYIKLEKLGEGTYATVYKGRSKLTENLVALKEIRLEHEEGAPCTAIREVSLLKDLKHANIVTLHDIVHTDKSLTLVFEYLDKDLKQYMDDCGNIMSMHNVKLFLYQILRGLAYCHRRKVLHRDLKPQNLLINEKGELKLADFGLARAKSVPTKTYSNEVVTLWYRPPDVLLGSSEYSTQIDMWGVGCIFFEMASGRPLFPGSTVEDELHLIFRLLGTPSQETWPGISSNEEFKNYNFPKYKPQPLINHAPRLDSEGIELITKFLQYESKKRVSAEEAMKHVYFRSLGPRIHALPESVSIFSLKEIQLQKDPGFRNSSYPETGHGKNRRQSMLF
# [27] = system: Phosphatidylinositol 4,5-bisphosphate 3-kinase catalytic subunit alpha isoform (Homo sapiens), P42336 [M1043I]; conditions: Compound concentration 1000.0 nM
# [28] = system: Phosphatidylinositol 4,5-bisphosphate 3-kinase catalytic subunit alpha isoform (Homo sapiens), P42336 [Q546K]; conditions: Compound concentration 1000.0 nM
# [29] = biological target: Protein kinase C eta type (Homo sapiens) (UniProt P24723); conditions: Compound concentration 1000.0 nM
# [30] = biological target: Serine/threonine-protein kinase SIK3 (Homo sapiens) (UniProt Q9Y2K2); conditions: Compound concentration 1000.0 nM
# Sequence of Serine/threonine-protein kinase SIK3 (Homo sapiens) (Q9Y2K2 whole entry, looked up): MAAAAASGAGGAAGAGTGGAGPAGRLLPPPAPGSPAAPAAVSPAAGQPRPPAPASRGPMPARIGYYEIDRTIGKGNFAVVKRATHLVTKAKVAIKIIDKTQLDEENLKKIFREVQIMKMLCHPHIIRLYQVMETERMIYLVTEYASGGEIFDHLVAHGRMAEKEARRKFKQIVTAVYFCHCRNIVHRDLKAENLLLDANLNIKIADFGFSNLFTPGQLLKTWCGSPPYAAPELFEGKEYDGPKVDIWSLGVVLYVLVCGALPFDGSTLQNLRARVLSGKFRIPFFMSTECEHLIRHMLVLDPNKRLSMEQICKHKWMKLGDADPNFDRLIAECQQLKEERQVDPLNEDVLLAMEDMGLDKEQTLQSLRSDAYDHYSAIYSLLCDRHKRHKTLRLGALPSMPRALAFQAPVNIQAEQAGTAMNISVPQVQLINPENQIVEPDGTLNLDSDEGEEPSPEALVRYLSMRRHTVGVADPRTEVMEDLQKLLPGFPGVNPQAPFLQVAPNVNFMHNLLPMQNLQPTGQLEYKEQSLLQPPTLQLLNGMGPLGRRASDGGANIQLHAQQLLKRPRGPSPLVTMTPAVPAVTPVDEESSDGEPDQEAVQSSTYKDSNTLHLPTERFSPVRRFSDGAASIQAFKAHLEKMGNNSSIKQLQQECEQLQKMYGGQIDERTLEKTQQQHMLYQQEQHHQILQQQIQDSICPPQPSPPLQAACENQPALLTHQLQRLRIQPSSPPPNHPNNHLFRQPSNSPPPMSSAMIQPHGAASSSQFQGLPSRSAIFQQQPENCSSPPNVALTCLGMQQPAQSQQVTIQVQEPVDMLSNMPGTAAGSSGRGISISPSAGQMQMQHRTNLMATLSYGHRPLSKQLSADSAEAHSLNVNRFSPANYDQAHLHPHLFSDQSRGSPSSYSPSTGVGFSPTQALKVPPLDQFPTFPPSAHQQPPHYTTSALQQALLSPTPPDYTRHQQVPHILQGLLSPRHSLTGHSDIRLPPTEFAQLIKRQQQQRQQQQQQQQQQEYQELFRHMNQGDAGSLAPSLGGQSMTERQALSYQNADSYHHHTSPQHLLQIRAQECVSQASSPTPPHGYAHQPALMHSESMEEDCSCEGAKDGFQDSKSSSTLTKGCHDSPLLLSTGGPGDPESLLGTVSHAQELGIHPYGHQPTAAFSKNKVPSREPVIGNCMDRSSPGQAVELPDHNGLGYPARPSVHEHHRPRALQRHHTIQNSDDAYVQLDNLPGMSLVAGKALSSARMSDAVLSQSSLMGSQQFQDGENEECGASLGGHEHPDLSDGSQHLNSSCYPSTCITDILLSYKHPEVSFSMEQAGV
# [31] = biological target: Rho-associated protein kinase 2 (Homo sapiens) (UniProt O75116); conditions: Compound concentration 1000.0 nM
# [32] = biological target: Ribosomal protein S6 kinase alpha-1 (Homo sapiens) (UniProt Q15418); conditions: Compound concentration 1000.0 nM
# [33] = biological target: Ribosomal protein S6 kinase alpha-6 (Homo sapiens) (UniProt Q9UK32); conditions: Compound concentration 1000.0 nM
# [34] = biological target: STE20/SPS1-related proline-alanine-rich protein kinase (Homo sapiens) (UniProt Q9UEW8); conditions: Compound concentration 1000.0 nM
# [35] = biological target: Mitogen-activated protein kinase kinase kinase 7 (Homo sapiens) (UniProt O43318); conditions: Compound concentration 1000.0 nM
# [36] = biological target: Tyrosine-protein kinase Tec (Homo sapiens) (UniProt P42680); conditions: Compound concentration 1000.0 nM
# [37] = biological target: TGF-beta receptor type-1 (Homo sapiens) (UniProt P36897); conditions: Compound concentration 1000.0 nM
# [38] = biological target: Non-receptor tyrosine-protein kinase TYK2 (Homo sapiens) (UniProt P29597); conditions: Compound concentration 1000.0 nM
# [39] = biological target: Phosphatidylinositol 3-kinase catalytic subunit type 3 (Homo sapiens) (UniProt Q8NEB9); conditions: Compound concentration 1000.0 nM
# [40] = biological target: Wee1-like protein kinase 2 (Homo sapiens) (UniProt P0C1S8); conditions: Compound concentration 1000.0 nM
# [41] = biological target: Serine/threonine-protein kinase 32A (Homo sapiens) (UniProt Q8WU08); conditions: Compound concentration 1000.0 nM
# [42] = biological target: Serine/threonine-protein kinase 25 (Homo sapiens) (UniProt O00506); conditions: Compound concentration 1000.0 nM
# [43] = biological target: 5-hydroxytryptamine receptor 2A (Homo sapiens) (UniProt P28223); conditions: Compound concentration 10.0 uM
# Sequence of 5-hydroxytryptamine receptor 2A (Homo sapiens) (P28223 whole entry): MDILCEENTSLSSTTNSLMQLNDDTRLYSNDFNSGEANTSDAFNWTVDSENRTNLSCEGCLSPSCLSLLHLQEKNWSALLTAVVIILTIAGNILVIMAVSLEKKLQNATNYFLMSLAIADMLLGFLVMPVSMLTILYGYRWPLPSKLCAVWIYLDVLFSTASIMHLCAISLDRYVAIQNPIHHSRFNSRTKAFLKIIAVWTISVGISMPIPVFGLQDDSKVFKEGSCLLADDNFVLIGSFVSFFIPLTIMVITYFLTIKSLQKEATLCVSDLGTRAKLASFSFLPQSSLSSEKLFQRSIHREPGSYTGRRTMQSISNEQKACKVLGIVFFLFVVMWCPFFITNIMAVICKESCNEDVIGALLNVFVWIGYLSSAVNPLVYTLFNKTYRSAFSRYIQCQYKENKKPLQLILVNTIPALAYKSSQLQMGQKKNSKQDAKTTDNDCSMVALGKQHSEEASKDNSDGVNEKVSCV
# [44] = biological target: Sigma non-opioid intracellular receptor 1 (Homo sapiens) (UniProt Q99720); conditions: Compound concentration 10.0 uM
structure (smiles),measurement,setting,value
O=C(NS(=O)(=O)c1ccc(NCC2CCOCC2)c([N+](=O)[O-])c1)c1ccc(N2CCN(Cc3ccc(C(F)(F)F)cc3-c3ccc(Cl)cc3)CC2)cc1Oc1cnc2[nH]ccc2c1 [A-1210227],% Inhibition of Control Specific Binding (Mean n=2),[1],-7.6%
same,% Inhibition of Control Specific Binding (Mean n=2),[2],-10.3%
same,residual activity,[3],98%
same,residual activity,[4],100%
same,residual activity,[5],59%
same,residual activity,[6],100%
same,residual activity,[7],100%
same,residual activity,[8],99%
same,residual activity,[9],100%
same,residual activity,[10],99%
same,residual activity,[11],100%
same,residual activity,[12],80%
same,residual activity,[13],100%
same,residual activity,[14],91%
same,residual activity,[15],99%
same,residual activity,[16],84%
same,residual activity,[17],100%
same,residual activity,[18],85%
same,residual activity,[19],76%
same,residual activity,[20],100%
same,residual activity,[21],94%
same,residual activity,[22],72%
same,residual activity,[23],100%
same,residual activity,[24],94%
same,residual activity,[25],100%
same,residual activity,[26],100%
same,residual activity,[27],51%
same,residual activity,[28],100%
same,residual activity,[29],100%
same,residual activity,[30],76%
same,residual activity,[31],100%
same,residual activity,[32],95%
same,residual activity,[33],100%
same,residual activity,[34],89%
same,residual activity,[35],100%
same,residual activity,[36],71%
same,residual activity,[37],93%
same,residual activity,[38],73%
same,residual activity,[39],100%
same,residual activity,[40],100%
same,residual activity,[41],99%
same,residual activity,[42],98%
same,inhibition,[43],12.5%
same,inhibition,[44],11.1%
CO[C@H]1CC[C@H](CNc2ccc(S(=O)(=O)NC(=O)c3ccc(N4CCN(CC5=C(c6ccc(Cl)cc6)CC(C)(C)CC5)CC4)cc3Oc3cnc4[nH]ccc4c3)cc2[N+](=O)[O-])CC1 [A-1211212],% Inhibition of Control Specific Binding (Mean n=2),[1],-3.3%
same,% Inhibition of Control Specific Binding (Mean n=2),[2],-2.6%
same,residual activity,[3],78%
same,residual activity,[4],80%
same,residual activity,[5],67%
same,residual activity,[6],100%
same,residual activity,[7],88%
same,residual activity,[8],81%
same,residual activity,[9],100%
same,residual activity,[10],100%
same,residual activity,[11],86%
same,residual activity,[12],93%
same,residual activity,[13],100%
same,residual activity,[14],68%
same,residual activity,[15],71%
same,residual activity,[16],68%
same,residual activity,[17],96%
same,residual activity,[18],84%
same,residual activity,[19],83%
same,residual activity,[20],100%
same,residual activity,[21],84%
same,residual activity,[22],97%
same,residual activity,[23],100%
same,residual activity,[24],90%
same,residual activity,[25],78%
same,residual activity,[26],99%
same,residual activity,[27],74%
same,residual activity,[28],100%
same,residual activity,[29],60%
same,residual activity,[30],89%
same,residual activity,[31],100%
same,residual activity,[32],69%
same,residual activity,[33],81%
same,residual activity,[34],100%
same,residual activity,[35],100%
same,residual activity,[36],74%
same,residual activity,[37],84%
same,residual activity,[38],67%
same,residual activity,[39],100%
same,residual activity,[40],81%
same,residual activity,[41],99%
same,residual activity,[42],83%
same,inhibition,[43],12.7%
same,inhibition,[44],49.8%
